Reference: patent publication US20060069132A1, “Azolecarboxamide herbicides” (priority 2004, published 2006)

Columns and labels:
[1] = test system: bermudagrass; assay: Test C pre-/postemergence herbicide test; assay type: in vivo, Cynodon dactylon; conditions: preemergence; for Plant response rating (0 = no effect, 100 = complete control), Bermudagrass: 125 g ai/ha
In short: (§1)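 Greenhouse-grown plants were evaluated visually 12 to 14 days after treatment, with 100 meaning complete control and 0 no effect. Application was preemergence, or postemergence at 2 to 18 cm.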

[2] = test system: Surinam grass; assay: Test C pre-/postemergence herbicide test; assay type: in vivo, Urochloa decumbens; conditions: preemergence; for Plant response rating (0 = no effect, 100 = complete control), Surinam Grass: 125 g ai/ha
In short: as §1

[3] = test system: corn; assay: Test C pre-/postemergence herbicide test; assay type: in vivo, Zea mays; conditions: preemergence; for Plant response rating (0 = no effect, 100 = complete control), Corn: 125 g ai/ha
In short: as §1

[4] = test system: goosegrass; assay: Test C pre-/postemergence herbicide test; assay type: in vivo, Eleusine indica; conditions: preemergence; for Plant response rating (0 = no effect, 100 = complete control), Goosegrass: 125 g ai/ha
In short: as §1

[5] = test system: johnsongrass; assay: Test C pre-/postemergence herbicide test; assay type: in vivo, Sorghum halepense; conditions: preemergence; for Plant response rating (0 = no effect, 100 = complete control), Johnsongrass: 125 g ai/ha
In short: as §1

[6] = test system: morningglory; assay: Test C pre-/postemergence herbicide test; assay type: in vivo, Ipomoea coccinea; parameters: key to Plant response rating, Morningglory: 0 = no effect, 100 = complete control; conditions: preemergence; for Plant response rating (0 = no effect, 100 = complete control), Morningglory: 125 g ai/ha
In short: as §1

[7] = test system: common ragweed; assay: Test C pre-/postemergence herbicide test; assay type: in vivo, Ambrosia elatior; parameters: key to Plant response rating, Ragweed: 0 = no effect, 100 = complete control; conditions: preemergence; for Plant response rating (0 = no effect, 100 = complete control), Ragweed: 125 g ai/ha
In short: as §1

[8] = test system: velvetleaf; assay: Test C pre-/postemergence herbicide test; assay type: in vivo, Abutilon theophrasti; conditions: preemergence; for Plant response rating (0 = no effect, 100 = complete control), Velvetleaf: 125 g ai/ha
In short: as §1

[9] = test system: ducksalad; assay: Test C flooded paddy test; assay type: in vivo, Heteranthera limosa
[10] = test system: barnyardgrass; assay: Test C flooded paddy test; assay type: in vivo, Echinochloa crus-galli
In short: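 Injury scored visually against controls on a 0 (no effect) to 100 (complete control) scale, 12 to 14 days after treatment in greenhouse. Flooded paddy plants treated at 2-leaf stage; postemergence plants at 1- to 4-leaf stage, 2 to 18 cm tall.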

[11] = test system: large crabgrass; assay: Test A pre-/postemergence herbicide test; assay type: in vivo, Digitaria sanguinalis
In short: (§2)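 Plants are held in greenhouse about ten days after treatment, then compared with untreated controls and scored 0 (no effect) to 100 (complete control). Preemergence dosing is a directed soil spray on sown sandy loam; postemergence dosing is spray to runoff at 2–10 cm height.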

[12] = test system: giant foxtail; assay: Test A pre-/postemergence herbicide test; assay type: in vivo, Setaria faberi
In short: as §2

[13] = test system: morningglory; assay: Test A pre-/postemergence herbicide test; assay type: in vivo, Ipomoea spp.
In short: as §2

[14] = 62 g ai/ha, scale 0 to 100, 0 no effect, 100 complete control
[15] = 500 g ai/ha, scale 0 to 100 (0 no effect, 100 complete control), visual, 12 to 14 days
[16] = 125 g ai/ha, scale 0 to 100 (0 no effect, 100 complete control)
[17] = 250 g ai/ha, scale of 0 to 100, 0 is no effect, 100 is complete control
[18] = 500 g ai/ha, visual rating after 12 to 14 days, scale 0 to 100 (0 no effect, 100 complete control)
[19] = Postemergence, 500 g ai/ha, 0 to 100 scale, 0 no effect, 100 complete control
[20] = Postemergence, 2000 g ai/ha, 0 to 100 scale, 0 no effect, 100 complete control
[21] = Preemergence, 2000 g ai/ha, visual rating, 0 to 100 scale (0 no effect, 100 complete control)
[22] = preemergence, 500 g ai/ha, visual injury, 0 to 100 scale (0 no effect, 100 complete control)

Row | Compound | Plant response rating, Bermudagrass [1, 14] | Plant response rating (0 = no effect, 100 = complete control), Bermudagrass [1] | Plant response rating, Bermudagrass ([1]; 250 g ai/ha, scale 0-100) | Plant response rating, Bermudagrass [1, 15] | Plant response rating, Surinam Grass ([2]; 62 g ai/ha, scale 0 to 100) | Plant response rating (0 = no effect, 100 = complete control), Surinam Grass [2] | Plant response rating, Surinam Grass [2, 15] | Plant response rating, Corn ([3]; 62 g ai/ha, scale 0 to 100) | Plant response rating (0 = no effect, 100 = complete control), Corn [3] | Plant response rating, Corn ([3]; 250 g ai/ha, scale 0-100) | Plant response rating, Corn [3, 15] | Plant response rating, Goosegrass ([4]; 62 g ai/ha, scale 0 to 100) | Plant response rating (0 = no effect, 100 = complete control), Goosegrass [4] | Plant response rating, Goosegrass ([4]; 250 g ai/ha, scale 0-100) | Plant response rating, Goosegrass [4, 15] | Plant response rating, Johnsongrass ([5]; 62 g ai/ha, scale 0 to 100) | Plant response rating (0 = no effect, 100 = complete control), Johnsongrass [5] | Plant response rating, Johnsongrass ([5]; 250 g ai/ha, scale 0-100) | Plant response rating, Johnsongrass [5, 15] | Plant response rating, Morningglory ([6]; 62 g ai/ha, scale 0 to 100) | also measured
1 | CCC1=NN(C(C)(C)C)CC1C(=O)Nc1cc(C(=O)N2CCCC2)ccc1F (racemic) [Compound 341] | 80 | 80 | 100 | 100 | 60 | 95 | 100 | 10 | 60 | 85 | 90 | 70 | 85 | 85 | 90 | 15 | 85 | 100 | 100 | 0 | Plant response rating, Surinam Grass ([2]; 250 g ai/ha, scale 0-100): 100; Plant response rating (0 = no effect, 100 = complete control), Morningglory [6]: 5; Plant response rating, Morningglory ([6]; 250 g ai/ha, scale 0-100): 5; Plant response rating, Morningglory [6, 15]: 50; Plant response rating, Ragweed ([7]; 62 g ai/ha, scale 0 to 100): 50; Plant response rating (0 = no effect, 100 = complete control), Ragweed [7]: 100; Plant response rating, Ragweed ([7]; 250 g ai/ha, scale 0-100): 100; Plant response rating, Ragweed [7, 15]: 100; Plant response rating, Velvetleaf ([8]; 62 g ai/ha, scale 0 to 100): 30; Plant response rating (0 = no effect, 100 = complete control), Velvetleaf [8]: 60; Plant response rating, Velvetleaf ([8]; 250 g ai/ha, scale 0-100): 100; Plant response rating, Velvetleaf [8, 15]: 100; Ducksalad plant response rating ([9]; 62 g ai/ha, scale 0 to 100): 20; Ducksalad plant response rating [9, 16]: 50; Ducksalad plant response rating [9, 17]: 60; Plant response rating, Ducksalad [9, 18]: 60; Barnyardgrass plant response rating ([10]; 62 g ai/ha, scale 0 to 100 (0 no effect, 100 complete control)): 30; Barnyardgrass plant response rating [10, 16]: 30; Barnyardgrass plant response rating [10, 17]: 50; Plant response rating, Barnyardgrass [10, 18]: 60
2 | CCc1nn(C(C)(C)C)nc1C(=O)Nc1cccc(C(=O)NC2CC2)c1 [Compound 417] | 100 | 100 | 100 | 100 | 0 | 75 | 95 | 0 | 0 | 10 | 65 | 95 | 100 | 100 | 100 | 100 | 100 | 100 | 100 | 0 | Crabgrass, Large plant response rating [11, 19]: 30; Plant response rating, Crabgrass, Large [11, 20]: 85; Crabgrass, Large plant response rating [11, 21]: 95; Crabgrass, Large plant response rating [11, 22]: 75; Foxtail, Giant plant response rating [12, 19]: 75; Plant response rating, Foxtail, Giant [12, 20]: 85; Foxtail, Giant plant response rating [12, 21]: 100; Foxtail, Giant plant response rating [12, 22]: 90; Morningglory plant response rating [13, 19]: 70; Plant response rating, Morningglory [13, 20]: 85; Morningglory plant response rating [13, 21]: 80; Morningglory plant response rating [13, 22]: 20; Plant response rating (0 = no effect, 100 = complete control), Morningglory [6]: 20; Plant response rating, Morningglory [6, 15]: 95; Plant response rating, Ragweed ([7]; 62 g ai/ha, scale 0 to 100): 0; Plant response rating (0 = no effect, 100 = complete control), Ragweed [7]: 20; Plant response rating, Ragweed [7, 15]: 90; Plant response rating, Velvetleaf ([8]; 62 g ai/ha, scale 0 to 100): 75; Plant response rating (0 = no effect, 100 = complete control), Velvetleaf [8]: 100; Plant response rating, Velvetleaf [8, 15]: 100
